In US20230398130A1, “METHODS AND COMPOSITIONS FOR DIFFERENTIATING STEM CELLS” (Massachusetts Institute of Technology, priority 2020, published 2023):

How the values were obtained:
ISC-enriched organoids [1] = assay: Primary screen, 384-well 2.5-D organoid differentiation (ENR+CD, 6 days): carbachol-induced lysozyme secretion (LYZ.S); assay type: cell-based, murine; details: for Dose.FC.LYZ.S (log 2 fold change): vs plate median; for Dose.FC.LYZ.S: FC vs plate median; for Z.LYZ.S: standard z score; for SSMD.LYZ.S: strictly standardized mean difference
Excerpt: (§1) High-throughput screening.

ISC-enriched organoids [2] = assay: Primary screen, 384-well 2.5-D organoid differentiation (ENR+CD, 6 days, Target Selective Inhibitor Library, vs whole-plate median): ATP (CellTiter-Glo 3D, CTG); details: for Dose.FC.CTG (log 2 fold change): vs plate median; for Dose.FC.CTG: FC vs plate median; for SSMD.CTG: strictly standardized mean difference
ISC-enriched organoids [3] = assay: Primary screen, 384-well 2.5-D organoid differentiation (ENR+CD, 6 days): basal lysozyme secretion (LYZ.NS); assay type: cell-based, murine; details: for Dose.FC.LYZ.NS (log 2 fold change): vs plate median; for Dose.FC.LYZ.NS: FC vs plate median; for SSMD.LYZ.NS: strictly standardized mean difference
Excerpt: as §1

[4] = primary screen, 1st of the 4 dose lines of the treatment (dose not given)
[5] = primary screen, 2nd of the 4 dose lines of the treatment (dose not given)
[6] = primary screen, 3rd of the 4 dose lines of the treatment (dose not given)
[7] = primary screen, 4th of the 4 dose lines of the treatment (dose not given)
[8] = Dose 0.08 uM, primary screen, standard z score
[9] = Dose 0.40 uM, primary screen, standard z score
[10] = Dose 2.00 uM, primary screen, standard z score
[11] = Dose 10.00 uM, primary screen, standard z score
[12] = Dose 0.08 uM, standard z score of FC
[13] = Dose 0.40 uM, standard z score of FC
[14] = Dose 2.00 uM, standard z score of FC
[15] = Dose 10.00 uM, standard z score of FC

O=C(Nc1ccccc1-c1cn2c(CN3CCNCC3)csc2n1)c1cnc2ccccc2n1 [SRT1720]
Dose.FC.LYZ.S (log 2 fold change) (ISC-enriched organoids [1]; Dose 0.08 uM, primary screen): 0.190
Dose.FC.LYZ.S (log 2 fold change) (ISC-enriched organoids [1]; Dose 0.40 uM, primary screen): 0.099
Dose.FC.LYZ.S (log 2 fold change) (ISC-enriched organoids [1]; Dose 2.00 uM, primary screen): 0.051
Dose.FC.LYZ.S (log 2 fold change) (ISC-enriched organoids [1]; Dose 10.00 uM, primary screen): −0.193
Z.CTG (standard z score) (ISC-enriched organoids [2]; Dose 0.08 uM, primary screen): 1.264
Dose.FC.CTG (log 2 fold change) (ISC-enriched organoids [2]; Dose 0.08 uM, primary screen): 0.529
Z.CTG (standard z score) (ISC-enriched organoids [2]; Dose 0.40 uM, primary screen): 0.940
Dose.FC.CTG (log 2 fold change) (ISC-enriched organoids [2]; Dose 0.40 uM, primary screen): 0.394
Z.CTG (standard z score) (ISC-enriched organoids [2]; Dose 2.00 uM, primary screen): 0.810
Dose.FC.CTG (log 2 fold change) (ISC-enriched organoids [2]; Dose 2.00 uM, primary screen): 0.339
Z.CTG (standard z score) (ISC-enriched organoids [2]; Dose 10.00 uM, primary screen): −2.427
Dose.FC.CTG (log 2 fold change) (ISC-enriched organoids [2]; Dose 10.00 uM, primary screen): −1.016
Z.LYZ.NS (standard z score) (ISC-enriched organoids [3]; Dose 0.08 uM, primary screen): 1.495
Dose.FC.LYZ.NS (log 2 fold change) (ISC-enriched organoids [3]; Dose 0.08 uM, primary screen): 0.172
Z.LYZ.NS (standard z score) (ISC-enriched organoids [3]; Dose 0.40 uM, primary screen): 0.972
Dose.FC.LYZ.NS (log 2 fold change) (ISC-enriched organoids [3]; Dose 0.40 uM, primary screen): 0.112
Z.LYZ.NS (standard z score) (ISC-enriched organoids [3]; Dose 2.00 uM, primary screen): 0.613
Dose.FC.LYZ.NS (log 2 fold change) (ISC-enriched organoids [3]; Dose 2.00 uM, primary screen): 0.070
Z.LYZ.NS (standard z score) (ISC-enriched organoids [3]; Dose 10.00 uM, primary screen): −0.906
Dose.FC.LYZ.NS (log 2 fold change) (ISC-enriched organoids [3]; Dose 10.00 uM, primary screen): −0.104

Cc1ccc(C(=O)N(CCCN)[C@@H](c2nc3cc(Cl)ccc3c(=O)n2Cc2ccccc2)C(C)C)cc1 [Ispinesib (SB-715992)]
Dose.FC.LYZ.S (ISC-enriched organoids [1]; Dose 0.08 uM, primary screen): −0.271 log 2 fold change
Dose.FC.LYZ.S (ISC-enriched organoids [1]; Dose 0.40 uM, primary screen): −0.296 log 2 fold change
Dose.FC.LYZ.S (ISC-enriched organoids [1]; Dose 2.00 uM, primary screen): −0.287 log 2 fold change
Dose.FC.LYZ.S (ISC-enriched organoids [1]; Dose 10.00 uM, primary screen): −0.286 log 2 fold change
Z.LYZ.S (ISC-enriched organoids [1]; [4]): −1.753
Z.LYZ.S (ISC-enriched organoids [1]; [5]): −1.914
Z.LYZ.S (ISC-enriched organoids [1]; [6]): −1.859
Z.LYZ.S (ISC-enriched organoids [1]; [7]): −1.850
SSMD.LYZ.S (ISC-enriched organoids [1]; [4]): −1.495
SSMD.LYZ.S (ISC-enriched organoids [1]; [5]): −1.509
SSMD.LYZ.S (ISC-enriched organoids [1]; [6]): −1.657
SSMD.LYZ.S (ISC-enriched organoids [1]; [7]): −1.525
Dose.FC.CTG (ISC-enriched organoids [2]; Dose 0.08 uM, primary screen): −0.323 log 2 fold change
Z.CTG (ISC-enriched organoids [2]; [8]): −0.772
Dose.FC.CTG (ISC-enriched organoids [2]; Dose 0.40 uM, primary screen): −0.518 log 2 fold change
Z.CTG (ISC-enriched organoids [2]; [9]): −1.238
Dose.FC.CTG (ISC-enriched organoids [2]; Dose 2.00 uM, primary screen): −0.511 log 2 fold change
Z.CTG (ISC-enriched organoids [2]; [10]): −1.220
Dose.FC.CTG (ISC-enriched organoids [2]; Dose 10.00 uM, primary screen): −0.713 log 2 fold change
Z.CTG (ISC-enriched organoids [2]; [11]): −1.704
SSMD.CTG (ISC-enriched organoids [2]; [4]): −0.942
SSMD.CTG (ISC-enriched organoids [2]; [5]): −0.971
SSMD.CTG (ISC-enriched organoids [2]; [6]): −1.118
SSMD.CTG (ISC-enriched organoids [2]; [7]): −1.236
Dose.FC.LYZ.NS (ISC-enriched organoids [3]; Dose 0.08 uM, primary screen): −0.222 log 2 fold change
Z.LYZ.NS (ISC-enriched organoids [3]; [8]): −1.931
Dose.FC.LYZ.NS (ISC-enriched organoids [3]; Dose 0.40 uM, primary screen): −0.191 log 2 fold change
Z.LYZ.NS (ISC-enriched organoids [3]; [9]): −1.663
Dose.FC.LYZ.NS (ISC-enriched organoids [3]; Dose 2.00 uM, primary screen): −0.196 log 2 fold change
Z.LYZ.NS (ISC-enriched organoids [3]; [10]): −1.709
Dose.FC.LYZ.NS (ISC-enriched organoids [3]; Dose 10.00 uM, primary screen): −0.201 log 2 fold change
Z.LYZ.NS (ISC-enriched organoids [3]; [11]): −1.752
SSMD.LYZ.NS (ISC-enriched organoids [3]; [4]): −1.681
SSMD.LYZ.NS (ISC-enriched organoids [3]; [5]): −1.354
SSMD.LYZ.NS (ISC-enriched organoids [3]; [6]): −1.617
SSMD.LYZ.NS (ISC-enriched organoids [3]; [7]): −1.093

COc1ccc(C[C@@H](C)NC[C@H](O)c2ccc(O)c(NC=O)c2)cc1.COc1ccc(C[C@@H](C)NC[C@H](O)c2ccc(O)c(NC=O)c2)cc1.O=C(O)/C=C/C(=O)O [Formoterol Hemifumarate]
Dose.FC.LYZ.S (ISC-enriched organoids [1]; Dose 0.08 uM, ENR+CD, 6 days): 0.206 log 2 fold change
Dose.FC.LYZ.S (ISC-enriched organoids [1]; Dose 0.40 uM, ENR+CD, 6 days): 0.293 log 2 fold change
Dose.FC.LYZ.S (ISC-enriched organoids [1]; Dose 2.00 uM, ENR+CD, 6 days): 0.090 log 2 fold change
Dose.FC.LYZ.S (ISC-enriched organoids [1]; Dose 10.00 uM, ENR+CD, 6 days): 0.011 log 2 fold change
Dose.FC.CTG (ISC-enriched organoids [2]; Dose 0.08 uM, ENR+CD, 6 days): 0.294 log 2 fold change
Z.CTG (ISC-enriched organoids [2]; [12]): 0.703
Dose.FC.CTG (ISC-enriched organoids [2]; Dose 0.40 uM, ENR+CD, 6 days): 0.265 log 2 fold change
Z.CTG (ISC-enriched organoids [2]; [13]): 0.633
Dose.FC.CTG (ISC-enriched organoids [2]; Dose 2.00 uM, ENR+CD, 6 days): 0.242 log 2 fold change
Z.CTG (ISC-enriched organoids [2]; [14]): 0.578
Dose.FC.CTG (ISC-enriched organoids [2]; Dose 10.00 uM, ENR+CD, 6 days): 0.253 log 2 fold change
Z.CTG (ISC-enriched organoids [2]; [15]): 0.604
Dose.FC.LYZ.NS (ISC-enriched organoids [3]; Dose 0.08 uM, ENR+CD, 6 days): 0.145 log 2 fold change
Z.LYZ.NS (ISC-enriched organoids [3]; [12]): 1.263
Dose.FC.LYZ.NS (ISC-enriched organoids [3]; Dose 0.40 uM, ENR+CD, 6 days): 0.073 log 2 fold change
Z.LYZ.NS (ISC-enriched organoids [3]; [13]): 0.638
Dose.FC.LYZ.NS (ISC-enriched organoids [3]; Dose 2.00 uM, ENR+CD, 6 days): 0.048 log 2 fold change
Z.LYZ.NS (ISC-enriched organoids [3]; [14]): 0.420
Dose.FC.LYZ.NS (ISC-enriched organoids [3]; Dose 10.00 uM, ENR+CD, 6 days): 0.013 log 2 fold change
Z.LYZ.NS (ISC-enriched organoids [3]; [15]): 0.114
